# Laboratory results reported in PubChem BioAssay AID248 (DTP/NCI, 2004).
# Where “and” joins values, the source holds several entries; their conditions need not be identical. Equal entries are not always repeated. Inconclusive results and toxic doses are left out.
# System: L1210 leukemia ip in BDF1 mice, survival T/C
# Test: NCI In Vivo Anticancer Drug Screen. Data for tumor model L1210 Leukemia (intraperitoneal) in B6D2F1 (BDF1) mice
# Conditions: endpoint: mean survival time, higher = longer survival
# Outline: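 Value reflects the ratio of survival in compound-treated mice to survival in vehicle-treated controls, with both groups carrying the same transplanted tumor.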
# [1] = dose: 100.0 mg/kg/injection, schedule: Q04DX002 (ip), vehicle: Klucel (hydroxypropylcellulose) (HPC)
# [2] = dose: 200.0 mg/kg/injection, schedule: Q04DX002 (ip), vehicle: Klucel (hydroxypropylcellulose) (HPC)
# [3] = dose: 100.0 mg/kg/injection, schedule: Q01DX001 (ip), vehicle: Klucel (hydroxypropylcellulose) (HPC)
# [4] = dose: 200.0 mg/kg/injection, schedule: Q01DX001 (ip), vehicle: Klucel (hydroxypropylcellulose) (HPC)
# [5] = dose: 400.0 mg/kg/injection, schedule: Q01DX001 (ip), vehicle: Klucel (hydroxypropylcellulose) (HPC)
# [6] = dose: 400.0 mg/kg/injection, schedule: Q04DX002 (ip), vehicle: Klucel (hydroxypropylcellulose) (HPC)
# [7] = dose: 100.0 mg/kg/injection, schedule: Q01DX009 (ip), vehicle: saline with Tween-80
# [8] = dose: 200.0 mg/kg/injection, schedule: Q01DX009 (ip), vehicle: saline with Tween-80
# [9] = dose: 400.0 mg/kg/injection, schedule: Q01DX009 (ip), vehicle: saline with Tween-80
structure (smiles),measurement,setting,value
CN(C)C(=S)SCCC(=O)O,T/C,[1],94 % of control
same,T/C,"dose: 100.0 mg/kg/injection, schedule: Q04DX002 (ip), vehicle: saline",103 % of control
same,T/C,[2],88 % of control
same,T/C,"dose: 200.0 mg/kg/injection, schedule: Q04DX002 (ip), vehicle: saline",100 % of control
same,T/C,"dose: 400.0 mg/kg/injection, schedule: Q04DX002 (ip), vehicle: saline",100 % of control
CCOS(=O)O,T/C,"dose: 100.0 mg/kg/injection, schedule: Q04DX003 (ip), vehicle: saline",96 % of control
same,T/C,"dose: 200.0 mg/kg/injection, schedule: Q04DX003 (ip), vehicle: saline",96 % of control
same,T/C,"dose: 400.0 mg/kg/injection, schedule: Q04DX003 (ip), vehicle: saline",98 % of control
C=C(C)CNC(N)=S,T/C,"dose: 75.0 mg/kg/injection, schedule: Q04DX003 (ip), vehicle: Klucel (hydroxypropylcellulose) (HPC)",98 % of control
same,T/C,[3],105 % of control
same,T/C,"dose: 150.0 mg/kg/injection, schedule: Q04DX003 (ip), vehicle: Klucel (hydroxypropylcellulose) (HPC)",89 % of control
same,T/C,[4],98 % of control
same,T/C,"dose: 300.0 mg/kg/injection, schedule: Q04DX003 (ip), vehicle: Klucel (hydroxypropylcellulose) (HPC)",110 % of control
same,T/C,[5],105 % of control
Nc1ncnc2c1ncn2CCCNC(=O)c1cc([N+](=O)[O-])cc([N+](=O)[O-])c1,T/C,"dose: 100.0 mg/kg/injection, schedule: Q01DX009 (ip), vehicle: saline",103 % of control
same,T/C,"dose: 200.0 mg/kg/injection, schedule: Q01DX009 (ip), vehicle: saline",96 % of control
same,T/C,"dose: 400.0 mg/kg/injection, schedule: Q01DX009 (ip), vehicle: saline",90 % of control
CCCCOC(=O)OCNC(=O)Oc1ccc(Br)cc1Br,T/C,"dose: 100.0 mg/kg/injection, schedule: Q01DX009 (ip), vehicle: Klucel (hydroxypropylcellulose) (HPC)",92 % of control
same,T/C,"dose: 200.0 mg/kg/injection, schedule: Q01DX009 (ip), vehicle: Klucel (hydroxypropylcellulose) (HPC)",94 % of control
same,T/C,"dose: 400.0 mg/kg/injection, schedule: Q01DX009 (ip), vehicle: Klucel (hydroxypropylcellulose) (HPC)",101 % of control
CN=C(NCCCOC)c1ccc(NC(=O)c2ccc(C(=O)Nc3ccc(C(=NC)NCCCOC)cc3)c([N+](=O)[O-])c2)cc1,T/C,"dose: 1.0 mg/kg/injection, schedule: Q01DX Z (ip), vehicle: carboxymethylcellulose (CMC)",91 % of control
same,T/C,"dose: 1.88 mg/kg/injection, schedule: Q01DX Z (ip), vehicle: saline",92 % of control
same,T/C,"dose: 2.0 mg/kg/injection, schedule: Q01DX Z (ip), vehicle: carboxymethylcellulose (CMC)",91 % of control
same,T/C,"dose: 3.75 mg/kg/injection, schedule: Q01DX Z (ip), vehicle: saline",98 % of control
same,T/C,"dose: 4.0 mg/kg/injection, schedule: Q01DX Z (ip), vehicle: carboxymethylcellulose (CMC)",92 % of control
same,T/C,"dose: 7.5 mg/kg/injection, schedule: Q01DX Z (ip), vehicle: saline",104 % of control
same,T/C,"dose: 8.0 mg/kg/injection, schedule: Q01DX Z (ip), vehicle: carboxymethylcellulose (CMC)",95 % of control
same,T/C,"dose: 15.0 mg/kg/injection, schedule: Q01DX Z (ip), vehicle: carboxymethylcellulose (CMC)",101 % of control
same,T/C,"dose: 15.0 mg/kg/injection, schedule: Q01DX Z (ip), vehicle: saline",92 % of control
O=[N+]([O-])C1C2CCC(C2)C1[N+](=O)[O-] (configuration not stated),T/C,"dose: 75.0 mg/kg/injection, schedule: Q01DX001 (ip), vehicle: saline",91 % of control
same,T/C,"dose: 150.0 mg/kg/injection, schedule: Q01DX001 (ip), vehicle: saline",100 % of control
same,T/C,"dose: 300.0 mg/kg/injection, schedule: Q01DX001 (ip), vehicle: saline",87 % of control
Cc1cc(C)c(NC(=O)NC2CCCCC2)cc1C,T/C,[1],105 % of control
same,T/C,[2],94 % of control
same,T/C,[6],94 % of control
O=C(Nc1ccc(C2=NCCN2)cc1)c1ccc(F)c(C(=O)Nc2ccc(C3=NCCN3)cc2)c1,T/C,"dose: 2.25 mg/kg/injection, schedule: Q01DX Z (ip), vehicle: water",105 % of control
same,T/C,"dose: 4.5 mg/kg/injection, schedule: Q01DX Z (ip), vehicle: water",107 % of control
same,T/C,"dose: 9.0 mg/kg/injection, schedule: Q01DX Z (ip), vehicle: water",116 % of control
same,T/C,"dose: 37.5 mg/kg/injection, schedule: Q01DX Z (ip), vehicle: water",154 % of control
same,T/C,"dose: 75.0 mg/kg/injection, schedule: Q01DX Z (ip), vehicle: water",189 % of control
same,T/C,"dose: 150.0 mg/kg/injection, schedule: Q01DX Z (ip), vehicle: water",241 % of control
same,T/C,"dose: 300.0 mg/kg/injection, schedule: Q01DX Z (ip), vehicle: water",229 % of control
CC(c1ccccc1)n1ccnc1CC#N (configuration not stated),T/C,"dose: 12.5 mg/kg/injection, schedule: Q01DX009 (ip), vehicle: saline",109 % of control and 88 % of control
same,T/C,"dose: 12.5 mg/kg/injection, schedule: Q04DX002 (ip), vehicle: saline",91 % of control
same,T/C,"dose: 25.0 mg/kg/injection, schedule: Q01DX001 (ip), vehicle: saline",100 % of control
same,T/C,"dose: 25.0 mg/kg/injection, schedule: Q01DX009 (ip), vehicle: saline",107 % of control and 114 % of control
same,T/C,"dose: 25.0 mg/kg/injection, schedule: Q04DX002 (ip), vehicle: saline",101 % of control and 105 % of control and 109 % of control
same,T/C,"dose: 25.0 mg/kg/injection, schedule: Q04DX003 (ip), vehicle: saline",88 % of control
same,T/C,"dose: 50.0 mg/kg/injection, schedule: Q01DX001 (ip), vehicle: saline",101 % of control
same,T/C,"dose: 50.0 mg/kg/injection, schedule: Q01DX009 (ip), vehicle: saline",97 % of control and 98 % of control
same,T/C,"dose: 50.0 mg/kg/injection, schedule: Q04DX002 (ip), vehicle: saline",95 % of control and 96 % of control and 102 % of control
same,T/C,"dose: 50.0 mg/kg/injection, schedule: Q04DX003 (ip), vehicle: saline",93 % of control
CC1CN1P(=S)(N1CCCCC1)N1CC1C (configuration not stated),T/C,"dose: 50.0 mg/kg/injection, schedule: Q01DX001 (ip), vehicle: carboxymethylcellulose (CMC)",102 % of control
same,T/C,"dose: 100.0 mg/kg/injection, schedule: Q01DX001 (ip), vehicle: carboxymethylcellulose (CMC)",91 % of control
same,T/C,"dose: 200.0 mg/kg/injection, schedule: Q01DX001 (ip), vehicle: carboxymethylcellulose (CMC)",91 % of control
same,T/C,"dose: 400.0 mg/kg/injection, schedule: Q01DX001 (ip), vehicle: carboxymethylcellulose (CMC)",105 % of control
same,T/C,"dose: 600.0 mg/kg/injection, schedule: Q01DX001 (ip), vehicle: carboxymethylcellulose (CMC)",103 % of control
same,T/C,"dose: 800.0 mg/kg/injection, schedule: Q01DX001 (ip), vehicle: carboxymethylcellulose (CMC)",101 % of control
CCOC(=O)c1c(-c2ccc([N+](=O)[O-])cc2)cn(-c2ccc(OC)cc2)c1C,T/C,[1],91 % of control
same,T/C,[2],87 % of control
same,T/C,[6],94 % of control
OC1C=C(Br)C2CCC1CC2 (configuration not stated),T/C,"dose: 100.0 mg/kg/injection, schedule: Q01DX009 (ip), vehicle: other",113 % of control
same,T/C,"dose: 100.0 mg/kg/injection, schedule: Q04DX003 (ip), vehicle: other",96 % of control
same,T/C,"dose: 200.0 mg/kg/injection, schedule: Q01DX009 (ip), vehicle: other",100 % of control
same,T/C,"dose: 200.0 mg/kg/injection, schedule: Q04DX003 (ip), vehicle: other",107 % of control
same,T/C,"dose: 400.0 mg/kg/injection, schedule: Q01DX009 (ip), vehicle: other",92 % of control
same,T/C,"dose: 400.0 mg/kg/injection, schedule: Q04DX003 (ip), vehicle: other",100 % of control
c1ccc2cc(Nc3ccc4ccccc4c3)ccc2c1,T/C,[7],106 % of control
same,T/C,[8],108 % of control
same,T/C,[9],101 % of control
COc1cc([N+](=O)[O-])c(C)cc1Nc1ccc(OC)c(OC)c1,T/C,[7],105 % of control
same,T/C,"dose: 100.0 mg/kg/injection, schedule: Q04DX003 (ip), vehicle: saline with Tween-80",98 % of control
same,T/C,[8],96 % of control
same,T/C,"dose: 200.0 mg/kg/injection, schedule: Q04DX003 (ip), vehicle: saline with Tween-80",93 % of control
same,T/C,[9],96 % of control
same,T/C,"dose: 400.0 mg/kg/injection, schedule: Q04DX003 (ip), vehicle: saline with Tween-80",92 % of control
O=[N+]([O-])c1ccc(NCc2ccccc2O)cc1,T/C,"dose: 75.0 mg/kg/injection, schedule: Q04DX003 (ip), vehicle: other",110 % of control
same,T/C,[3],101 % of control
same,T/C,"dose: 150.0 mg/kg/injection, schedule: Q04DX003 (ip), vehicle: other",97 % of control
same,T/C,[4],106 % of control
same,T/C,"dose: 300.0 mg/kg/injection, schedule: Q04DX003 (ip), vehicle: other",103 % of control
same,T/C,[5],101 % of control
